From patent US20220175862A1, “CO-ADMINISTRATION COMPOSITION FOR PREVENTING OR TREATING HYPERCHOLESTEROLEMIA, CONTAINING BALLOON-FLOWER EXTRACT OR PLATYCODIN D DERIVED THEREFROM AS ACTIVE INGREDIENT” (University-Industry Cooperation Group of Kyung Hee …, priority 2019, published 2022)

How the values were obtained:
LDLR protein = LDLR protein stability after cycloheximide (CHX) treatment, Western blot; type: cell-based; conditions: PD 2.5 μM 24 h, then 100 μg/mL CHX
Procedure: (§1) Cells were treated with PD and PG for 24 h. Proteins were separated on 10% SDS-PAGE and transferred to nitrocellulose membranes. The membranes were incubated overnight at 4° C. For reference, anti-LDLR, Mylip/IDOL and LXRα were purchased from Abcam (Cambridge, UK), and anti-GAPDH was purchased from Cell Signaling (MA, USA). Further, anti-PCSK9 was purchased from Proteintech (Chicago. USA). The blots were then incubated with HRP-conjugated secondary antibody for 1 h at room temperature and measured using a Pierce ECL Western Blotting Substrate (Thermo Scientific, MA, USA).
Considering that IDOL mRNA is decreased upon PG and PD treatment, it could be inferred that PG and PD are able to enhance LDLR protein stability. Therefore, LDLR protein levels remaining after treatment with cycloheximide (CHX) which blocks new protein synthesis were examined.

PCSK9 = PCSK9 Western blot; type: cell-based; conditions: 24 h, indicated concentrations
Procedure: as §1

LXRα = LXRα protein expression by Western blot; type: cell-based; conditions: PD 1 μM, 2.5 μM, 5 μM, 24 h
Procedure: as §1

HepG2 cells = assay: Cell viability assay (WST); type: cell-based; conditions: 24 h
Procedure: Cells were dispensed in a 96-well plate and treated with PG (10 μg/mL, 50 μg/mL, 100 μg/mL, 250 μg/mL, 500 μg/mL) or PD (1 μM, 2.5 μM, 5 μM) for 24 h. After incubation, a WST solution (Daeillab Service, Co., Seoul, Korea) was added to each well and further incubated for 2 h. Next, water-soluble formazan in the medium was measured at 450 nm using an ELISA reader (Molecular Devices, Palo Alto, Calif.).
To investigate whether PG and PD display cytotoxic effects on HepG2 cells, cell viability was examined by WST1 assay following treatment with different concentrations of PG (10 μg/mL, 50 μg/mL, 100 µg/mL, 250 μg/mL, 500 μg/mL) or PD (1 μM, 2.5 μM, 5 μM). […] However, when high concentrations of 500 μg/mL of PG and 5 μM of PD were treated, cell viability was measured as 85% and 86%, respectively.

IDOL mRNA in HepG2 cells = assay: IDOL mRNA expression by RT-PCR; type: cell-based
Procedure: (§2) Cells were dispensed in a 6-well plate, and treated with PD or PG for 24 h, and then total RNA was extracted using an R&A-BLUE Total RNA extraction kit (iNtRON Biotechnology, Inc., Korea). Next, complementary DNA (cDNA) was synthesized from 1 μg of RNA using a PrimeScript 1 st strand cDNA Synthesis Kit (Takara Biotechnology, Dalian. Liaoning, China). RT-PCR was performed with a Maxime PCR PreMix Kit (i-StarTaq) (iNtRON Biotechnology, Inc., Korea). Sequences of primers used herein are as in Table 1, and GAPDH was used as an internal control.
To examine whether PD suppresses IDOL mRNA expression, co-treatment of T0901317 (LXR agonist) and PD was performed for 24 h. The LXR is a transcription factor that activates a target gene involved in lipid and cholesterol homeostasis, and IDOL is a representative target gene of LXR. In addition. T0901317 increases the expression of IDOL by binding to LXR.

[1] = tested on: LDL uptake in HepG2 cells; assay: LDL uptake assay (BODIPY-FL-LDL, confocal microscopy); type: cell-based; conditions: PD 2.5 μM 24 h, then BODIPY-LDL 1 h
Procedure: Cells were dispensed in a 24-well plate and treated as described above. After treatment with drugs, the culture medium was removed and replaced with 5 μg/mL of BODIPY-FL-LDL (Invitrogen, CA, USA) at 37° C. for 1 h. The cells were washed with PBS containing 0.3% BSA and fixed with 4% paraformaldehyde (PFA) for 10 min. Nuclei were stained with 1 μg/mL of DAPI in 2% BSA for 1 min and analyzed using confocal microscopy.
Then, confocal microscopy was performed.

LDLR mRNA in HepG2 cells = assay: LDLR mRNA expression by RT-PCR; type: cell-based; conditions: PD 1 μM, 2.5 μM, 24 h
Procedure: as §2
To define molecular mechanisms underlying the increased LDLR expression by PG and PD treatment, the effects of PG and PD on expression of genes including IDOL and PCSK9, which are known to regulate LDLR protein levels, were first examined.

[2] = tested on: cell surface LDLR in HepG2 cells; assay: Cell surface LDLR analysis by flow cytometry; type: cell-based; conditions: 2.5 μM of PD, 24 h
Procedure: Cells were treated as described above for 24 h, harvested, and then incubated at 37° C. for 30 min with anti-LDLR (Abcam, Cambridge, UK) diluted at 1:60 in PBS containing 5% BSA. The cells were washed with 1% BSA in PBS and incubated with Alexa Fluor 488-conjugated goat anti-rabbit IgG (Invitrogen, CA, USA) using a 1:250 dilution at 37° C. for 30 min. The cells were fixed with 0.5% PFA for 10 min, resuspended in PBS, and measured by flow cytometry (FACSCalibur, BD Biosciences, San Jose, Calif., USA). Data were analyzed using a CellQuest Pro software (BD Biosciences, USA).
Next, FACS analysis was performed to examine whether PG and PD increase LDLR expression on cell surface.

[3] = tested on: hypercholesterolemia-induced rat; conditions: cited from earlier work
[4] = tested on: LDLR expression in HepG2 cells; assay: LDLR protein expression by Western blot; type: cell-based; conditions: 24 h
Procedure: as §1
There is a report that LDLR mediates the uptake of LDL-induced cholesterol from plasma, lowering blood cholesterol levels. Therefore, it was examined whether PG and PD upregulate LDLR expression in HepG2 cells.
Generally, statins are widely used for lowering blood levels of LDL-C, because they upregulate hepatic LDLR expression and enhance the uptake of LDL-C in the blood. To investigate whether PG and PD have a synergistic effect with statins on LDLR expression, HepG2 cells were treated with PG or PD together with simvastatin for 24 h, and then the expression levels of LDLR were examined by Western blotting.

## C[C@@H]1O[C@@H](O[C@H]2[C@H](OC(=O)[C@]34CCC(C)(C)C[C@H]3C3=CC[C@@H]5[C@@]6(C)C[C@H](O)[C@H](O[C@@H]7O[C@H](CO)[C@@H](O)[C@H](O)[C@H]7O)C(CO)(CO)[C@@H]6CC[C@@]5(C)[C@]3(C)C[C@H]4O)OC[C@H](O)[C@@H]2O)[C@H](O)[C@H](O)[C@H]1O[C@@H]1OC[C@@H](O)[C@H](O[C@@H]2OC[C@](O)(CO)[C@H]2O)[C@H]1O [PD, Platycodin D]
LDLR protein
  LDLR protein stability after CHX, vs untreated cells: significantly stable
PCSK9
  proteolytic process of PCSK9: do not affect
LXRα
  LXR-α protein levels: did not change
HepG2 cells; 5 μM of PD
  cell viability: 86%
HepG2 cells; PD 1 μM to 2.5 μM
  cytotoxic effects on HepG2 cells: no significant cytotoxic effects
IDOL mRNA in HepG2 cells; HepG2, 24 h
  mRNA levels of IDOL: significantly decreased
IDOL mRNA in HepG2 cells; co-treatment PD 2.5 μM and T0901317 10 μM, 24 h
  T0901317-induced increase of IDOL mRNA: attenuated
[1]
  increase in the uptake of LDL particles vs untreated control cells: 1.7 fold
LDLR mRNA in HepG2 cells
  LDLR mRNA expression: no significant effects
[2]
  cell surface LDLR levels, as compared with a control: 1.2±0.07 fold change
[3]
  cholesterol in the body: effect of lowering cholesterol
[4]; HepG2 cells
  LDLR expression (Western blot): induce LDLR expression in HepG2 cells in a dose-dependent manner

## O=S(=O)(c1ccccc1)N(CC(F)(F)F)c1ccc(C(O)(C(F)(F)F)C(F)(F)F)cc1 [T0901317, reference compound]
IDOL mRNA in HepG2 cells; T0901317 10 μM, 24 h
  mRNA levels of IDOL gene: increased

## CCC(C)(C)C(=O)O[C@H]1C[C@@H](C)C=C2C=C[C@H](C)[C@H](CC[C@@H]3C[C@@H](O)CC(=O)O3)[C@H]21 [simvastatin, reference compound]
[4]; simvastatin 1 μM alone, HepG2
  increase in hepatic LDLR levels vs untreated control cells: approximately 2.2 fold
